Here are results for ten molecules from patent EP0080305A1, “Antiviral 2'-deoxyuridines, their preparation and use” (BEECHAM GROUP PLC, priority 1981, dated 1983).

Data set [1] deals with Herpes simplex type 1 virus (HFEM strain). The data set can be described thus: Plaque reduction test in Vero cells infected with Herpes simplex type 1 virus. It is filed as cell-based. The procedure:
(§1) Vero (African Green Monkey Kidney) cells were grown to confluence in 6 well multidishes, each well being 3.5 cm in diameter. The cells were incubated with Herpes simplex type 1 virus (HFEM strain) and overlaid with 0.5 mL of 0.9% agarose (w/v) in maintenance medium containing the test compound at a range of concentrations from 3 µg/mL in half-log dilution steps. The virus infected cultures were then incubated at 37 °C for 6 days before fixing in 4% formaldehyde solution and staining with carbolfuchsin. The dishes were then examined to find what concentration of test compound causing a 50% reduction in the number of virus plaques formed (PDD50 value) and the minimum concentration of test compound which killed the cell monolayer, leaving a clear zone devoid of cells and virus plaques (MTD).

Data set [2] in a line: Minimum concentration killing the Vero cell monolayer, read in the plaque reduction test. It is filed as cell-based, African Green Monkey. Particulars: african green monkey; minimum concentration which killed the cell monolayer; virus-infected Vero cells, 6 days at 37°C; read-out: MTD. As to the method: as §1
Where [3] appears, read: Human alphaherpesvirus 1, Vero, 144 h, read-out: PDD50, concentration causing a 50% reduction in the number of virus plaques, 6 days at 37°C.
[4] abbreviates: Human alphaherpesvirus 1, Vero, 144 h, read-out: PDD50, same PDD50 values given in µM, 6 days at 37°C.

The structures appear in SMILES notation. Where a name gives a salt, the structure may show the parent alone. Read-outs that look alike come from different tables or passages of the source. A value given as a limit tells only on which side of the number the result lay.

Consider `CC(C)(C)OC(=O)N1CCC[C@H]1C(=O)O[C@H]1C[C@H](n2cc(/C=C/Br)c(=O)[nH]c2=O)O[C@@H]1CO` [Example 29, E-5-(2-Bromovinyl)-3'-(t-butoxycarbonyl-L-prolyl)-2'-decxyuridine], for which the IC50 was determined as 0.64 µg/mL in data set [1] (Human alphaherpesvirus 1, 144 h, concentration causing a 50% reduction in the number of virus plaques, 6 days at 37°C, read-out: PDD50 (the source's name)) and 1.21 µM in data set [1] (Human alphaherpesvirus 1, 144 h, same PDD50 values given in µM, 6 days at 37°C, read-out: PDD50 (the source's name)). For the same molecule, the MCC at 144 h in data set [2] came out at 100 µg/mL.
Consider `CC(C)C[C@@H](N)C(=O)OC[C@H]1O[C@@H](n2cc(/C=C/Br)c(=O)[nH]c2=O)C[C@@H]1OC(=O)[C@H](N)CC(C)C` [Example 30, E-5-(2-Bromovinyl)-3',5'-di-D-leucyl-2'-deoxyuridine bis trifluoroacetate], for which the IC50 in data set [1] (setting [3]) was 0.16 µg/mL; in data set [1] (setting [4]) it was 0.2 µM. Moreover, the MCC at 144 h in data set [2] was more than 100 µg/mL.
Taken in the same sequence, the figures for `N[C@H](Cc1ccccc1)C(=O)OC[C@H]1O[C@@H](n2cc(/C=C/Br)c(=O)[nH]c2=O)C[C@@H]1OC(=O)[C@H](N)Cc1ccccc1` [Example 31, E-5-(2-Bromovinyl)-3',5'-di-D-phenylalanyl--2'-deoxyuridine bis trifluoroacetate] were 0.55 µg/mL, 0.64 µM and more than 100 µg/mL.
For `CSCC[C@H](N)C(=O)OC[C@H]1O[C@@H](n2cc(/C=C/Br)c(=O)[nH]c2=O)C[C@@H]1OC(=O)[C@@H](N)CCSC` [Example 32, E-5-(2-Bromovinyl)-3',5'-di-L-methionyl-2'-deoxyuridine bis trifluoroacetate], the IC50 is 0.26 µg/mL in data set [1] (setting [3]) and 0.32 µM in data set [1] (setting [4]). In addition, the MCC at 144 h in data set [2] was more than 100 µg/mL.
For `CC(C)[C@H](N)C(=O)OC[C@H]1O[C@@H](n2cc(/C=C/Br)c(=O)[nH]c2=O)C[C@@H]1OC(=O)[C@@H](N)C(C)C` [Example 33, E-5-(2-Bromovinyl)-3',5'-di-L-valyl-2'-deoxyuridine bis trifluoroacetate], the figures for the IC50 in data set [1] (setting [3]) and in data set [1] (setting [4]) were 0.24 µg/mL and 0.32 µM, respectively. Moreover, the MCC at 144 h in data set [2] was more than 100 µg/mL.
Regarding `CC[C@H](C)[C@H](N)C(=O)OC[C@H]1O[C@@H](n2cc(/C=C/Br)c(=O)[nH]c2=O)C[C@@H]1OC(=O)[C@@H](N)[C@@H](C)CC` [Example 34, E-5-(2-Bromovinyl)-3',5'-di-L-isoleucyl-2'-deoxyuridine bis trifluoroacetate], the values for the IC50 in data set [1] (setting [3]) and in data set [1] (setting [4]) were 0.4 µg/mL and 0.51 µM, respectively. Also, in data set [2], the MCC at 144 h is more than 100 µg/mL.
With `O=C(OC[C@H]1O[C@@H](n2cc(/C=C/Br)c(=O)[nH]c2=O)C[C@@H]1OC(=O)[C@@H]1CCCN1)[C@@H]1CCCN1` [Example 35, E-5-(2-Bromovinyl)-3',5'-di-L-prolyl-2'-deoxyuridine bis trifluoroacetate], the results for the IC50 in data set [1] (setting [3]) and in data set [1] (setting [4]) were 0.22 µg/mL and 0.29 µM, respectively. For the same molecule, the MCC at 144 h in data set [2] is more than 100 µg/mL.
For the molecule `O=C(OC[C@H]1O[C@@H](n2cc(/C=C/Br)c(=O)[nH]c2=O)C[C@@H]1O)[C@@H]1CCCN1` [Example 36, E-5-(2-Bromovinyl)-5'-L-prolyl-2'-deoxyuridine trifluoroacetate], the IC50 in data set [1] (setting [3]) amounted to 0.55 µg/mL; in data set [1] (setting [4]), 1.01 µM. In addition, the MCC at 144 h in data set [2] was more than 100 µg/mL.
On to `O=C(O[C@H]1C[C@H](n2cc(/C=C/Br)c(=O)[nH]c2=O)O[C@@H]1CO)[C@@H]1CCCN1` [Example 37, E-5-(2-Bromovinyl)-3'-L-prolyl-2'-deoxyuridine trifluoroacetate], for which the results for the IC50 in data set [1] (setting [3]) and in data set [1] (setting [4]) were 0.68 µg/mL and 1.25 µM, respectively. The MCC at 144 h in data set [2] is more than 100 µg/mL.
Take `NC(=O)CC[C@H](N)C(=O)OC[C@H]1O[C@@H](n2cc(/C=C/Br)c(=O)[nH]c2=O)C[C@@H]1OC(=O)[C@@H](N)CCC(N)=O` [Example 39, bis trifluoroacetate]: the IC50 in data set [1] (setting [3]) was 0.42 µg/mL; in data set [1] (setting [4]), 0.51 µM. The MCC at 144 h in data set [2] was more than 100 µg/mL.
